Test results published in ChEMBL document CHEMBL4765455, “Design, synthesis, and biological evaluations of novel 3-amino-4-ethynyl indazole derivatives as Bcr-Abl kinase inhibitors with potent cellular antileukemic activity” (Eur J Med Chem, 2020).

Key:
Bcr/Abl fusion protein [1] = biological target: Bcr/Abl fusion protein (Homo sapiens, UniProt P00519); assay: Inhibition of wild type BCR-ABL (unknown origin) incubated for 40 mins in presence of [gamma33P]ATP by scintillation method; format: protein assay
Bcr/Abl fusion protein [2] = biological target: Bcr/Abl fusion protein (Homo sapiens, UniProt P00519, T315I); assay: Inhibition of BCR-ABL T315I mutant (unknown origin) incubated for 40 mins in presence of [gamma33P]ATP by scintillation method; format: protein assay
[3] = biological target: T1, Serine/threonine-protein kinase B-raf (Homo sapiens, UniProt P15056); assay: Inhibition of BRAF (unknown origin) at 1 uM relative to control
T1 sequence (P15056 whole entry): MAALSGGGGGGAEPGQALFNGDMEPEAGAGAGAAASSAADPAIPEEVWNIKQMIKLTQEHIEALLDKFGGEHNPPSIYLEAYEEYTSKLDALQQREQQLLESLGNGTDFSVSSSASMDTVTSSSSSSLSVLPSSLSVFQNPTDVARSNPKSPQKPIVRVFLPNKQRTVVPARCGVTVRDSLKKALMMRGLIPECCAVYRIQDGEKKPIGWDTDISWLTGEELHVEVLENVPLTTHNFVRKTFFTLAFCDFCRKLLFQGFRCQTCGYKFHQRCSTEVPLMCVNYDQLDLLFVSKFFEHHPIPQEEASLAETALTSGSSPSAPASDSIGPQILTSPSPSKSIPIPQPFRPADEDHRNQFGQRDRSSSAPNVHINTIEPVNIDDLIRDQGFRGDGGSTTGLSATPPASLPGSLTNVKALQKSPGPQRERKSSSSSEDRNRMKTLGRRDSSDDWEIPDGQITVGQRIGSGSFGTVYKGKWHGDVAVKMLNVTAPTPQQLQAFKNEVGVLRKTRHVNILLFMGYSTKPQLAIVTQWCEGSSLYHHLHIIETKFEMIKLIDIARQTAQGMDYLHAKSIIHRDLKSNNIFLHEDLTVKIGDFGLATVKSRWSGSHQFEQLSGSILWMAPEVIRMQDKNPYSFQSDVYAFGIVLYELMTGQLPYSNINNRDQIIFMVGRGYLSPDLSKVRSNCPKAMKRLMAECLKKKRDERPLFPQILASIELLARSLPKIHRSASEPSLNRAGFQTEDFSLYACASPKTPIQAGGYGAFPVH

[4] = biological target: T2, Proto-oncogene tyrosine-protein kinase Src (Homo sapiens, UniProt P12931); assay: Inhibition of c-Src (unknown origin) at 1 uM relative to control
T2 sequence (P12931 2-536 limits assumed): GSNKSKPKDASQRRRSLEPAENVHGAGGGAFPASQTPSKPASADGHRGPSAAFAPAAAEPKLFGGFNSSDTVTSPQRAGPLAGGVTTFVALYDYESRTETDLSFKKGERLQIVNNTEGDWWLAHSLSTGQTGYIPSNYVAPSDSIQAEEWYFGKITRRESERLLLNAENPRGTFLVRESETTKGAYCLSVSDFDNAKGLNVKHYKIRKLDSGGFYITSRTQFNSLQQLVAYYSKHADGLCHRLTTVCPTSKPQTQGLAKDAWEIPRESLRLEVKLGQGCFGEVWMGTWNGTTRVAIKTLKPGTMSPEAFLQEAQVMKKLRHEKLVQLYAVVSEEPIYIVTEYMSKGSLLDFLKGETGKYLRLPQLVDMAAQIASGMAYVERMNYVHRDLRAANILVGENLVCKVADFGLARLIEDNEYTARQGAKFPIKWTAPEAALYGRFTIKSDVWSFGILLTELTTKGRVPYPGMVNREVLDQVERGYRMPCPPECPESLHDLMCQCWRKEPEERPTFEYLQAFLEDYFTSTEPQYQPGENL

[5] = biological target: Receptor-type tyrosine-protein kinase FLT3 (Homo sapiens) (UniProt P36888); assay: Inhibition of FLT3 (unknown origin) at 1 uM relative to control
[6] = biological target: Aurora kinase A (Homo sapiens) (UniProt O14965); assay: Inhibition of Aurora A (unknown origin) at 1 uM relative to control
[7] = biological target: Hepatocyte growth factor receptor (Homo sapiens) (UniProt P08581); assay: Inhibition of c-MET (unknown origin) at 1 uM relative to control
[8] = biological target: Epidermal growth factor receptor (Homo sapiens) (UniProt P00533); assay: Inhibition of EGFR (unknown origin) at 1 uM relative to control
[9] = biological target: Cyclin-dependent kinase 4/cyclin D1 (Homo sapiens) (UniProt P11802+P24385); assay: Inhibition of CDK4/cyclinD1 (unknown origin) at 1 uM relative to control; format: protein-complex assay
[10] = biological target: Serine/threonine-protein kinase Chk1 (Homo sapiens) (UniProt O14757); assay: Inhibition of CHK1 (unknown origin) at 1 uM relative to control
[11] = biological target: Death-associated protein kinase 1 (Homo sapiens) (UniProt P53355); assay: Inhibition of DAPK1 (unknown origin) at 1 uM relative to control
[12] = biological target: Tyrosine-protein kinase JAK2 (Homo sapiens) (UniProt O60674); assay: Inhibition of JAK2 (unknown origin) at 1 uM relative to control
[13] = biological target: Dual specificity mitogen-activated protein kinase kinase 1 (Homo sapiens) (UniProt Q02750); assay: Inhibition of MEK1 (unknown origin) at 1 uM relative to control
[14] = biological target: Rho-associated protein kinase 1 (Homo sapiens) (UniProt Q13464); assay: Inhibition of ROCK1 (unknown origin) at 1 uM relative to control
Rho-associated protein kinase 1 (Homo sapiens), sequence (Q13464 2-1354 limits assumed): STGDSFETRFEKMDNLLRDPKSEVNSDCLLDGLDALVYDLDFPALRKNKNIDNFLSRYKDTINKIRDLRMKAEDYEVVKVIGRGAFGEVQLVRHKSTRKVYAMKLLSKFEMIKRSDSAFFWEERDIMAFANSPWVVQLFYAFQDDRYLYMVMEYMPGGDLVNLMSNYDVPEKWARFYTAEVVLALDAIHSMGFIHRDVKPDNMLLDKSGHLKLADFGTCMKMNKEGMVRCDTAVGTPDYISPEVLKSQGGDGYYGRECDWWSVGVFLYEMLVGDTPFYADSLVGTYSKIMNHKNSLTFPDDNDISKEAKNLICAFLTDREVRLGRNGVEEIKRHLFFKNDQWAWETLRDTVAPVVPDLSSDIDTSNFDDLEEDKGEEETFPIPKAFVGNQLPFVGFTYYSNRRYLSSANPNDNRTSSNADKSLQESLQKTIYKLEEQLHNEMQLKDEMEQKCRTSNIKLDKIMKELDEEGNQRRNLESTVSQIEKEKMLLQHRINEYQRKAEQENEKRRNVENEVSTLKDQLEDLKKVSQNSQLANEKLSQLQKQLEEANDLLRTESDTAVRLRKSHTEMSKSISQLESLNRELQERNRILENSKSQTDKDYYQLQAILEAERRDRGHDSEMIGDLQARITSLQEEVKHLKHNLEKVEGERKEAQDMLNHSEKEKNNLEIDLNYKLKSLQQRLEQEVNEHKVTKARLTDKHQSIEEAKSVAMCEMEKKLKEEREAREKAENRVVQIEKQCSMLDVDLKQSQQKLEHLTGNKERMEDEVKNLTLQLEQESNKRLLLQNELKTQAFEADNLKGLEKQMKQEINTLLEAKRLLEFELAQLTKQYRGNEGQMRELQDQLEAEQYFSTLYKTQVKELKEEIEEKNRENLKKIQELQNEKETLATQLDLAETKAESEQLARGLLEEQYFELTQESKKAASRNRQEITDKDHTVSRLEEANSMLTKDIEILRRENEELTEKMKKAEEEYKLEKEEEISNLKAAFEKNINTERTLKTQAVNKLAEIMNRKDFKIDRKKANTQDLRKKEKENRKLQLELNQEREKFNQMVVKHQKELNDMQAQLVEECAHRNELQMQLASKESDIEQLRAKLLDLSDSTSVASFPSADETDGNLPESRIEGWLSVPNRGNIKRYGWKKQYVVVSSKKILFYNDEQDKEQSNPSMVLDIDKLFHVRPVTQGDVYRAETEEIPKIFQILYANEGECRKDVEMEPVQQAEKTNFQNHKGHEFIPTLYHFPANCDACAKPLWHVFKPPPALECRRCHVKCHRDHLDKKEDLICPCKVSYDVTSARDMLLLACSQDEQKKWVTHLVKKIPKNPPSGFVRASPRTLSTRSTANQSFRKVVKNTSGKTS

[15] = biological target: Tyrosine-protein kinase SYK (Homo sapiens) (UniProt P43405); assay: Inhibition of SYK (unknown origin) at 1 uM relative to control
[16] = biological target: High affinity nerve growth factor receptor (Homo sapiens) (UniProt P04629); assay: Inhibition of TRKA (unknown origin) at 1 uM relative to control
[17] = biological target: T1, Serine/threonine-protein kinase B-raf; assay: Inhibition of BRAF (unknown origin) in presence of ATP
[18] = biological target: T2, Proto-oncogene tyrosine-protein kinase Src; assay: Inhibition of c-Src (unknown origin) in presence of ATP
[19] = biological target: Macrophage colony-stimulating factor 1 receptor (Homo sapiens, UniProt P07333); assay: Inhibition of FMS (unknown origin) in presence of ATP
Macrophage colony-stimulating factor 1 receptor, sequence (P07333 whole entry): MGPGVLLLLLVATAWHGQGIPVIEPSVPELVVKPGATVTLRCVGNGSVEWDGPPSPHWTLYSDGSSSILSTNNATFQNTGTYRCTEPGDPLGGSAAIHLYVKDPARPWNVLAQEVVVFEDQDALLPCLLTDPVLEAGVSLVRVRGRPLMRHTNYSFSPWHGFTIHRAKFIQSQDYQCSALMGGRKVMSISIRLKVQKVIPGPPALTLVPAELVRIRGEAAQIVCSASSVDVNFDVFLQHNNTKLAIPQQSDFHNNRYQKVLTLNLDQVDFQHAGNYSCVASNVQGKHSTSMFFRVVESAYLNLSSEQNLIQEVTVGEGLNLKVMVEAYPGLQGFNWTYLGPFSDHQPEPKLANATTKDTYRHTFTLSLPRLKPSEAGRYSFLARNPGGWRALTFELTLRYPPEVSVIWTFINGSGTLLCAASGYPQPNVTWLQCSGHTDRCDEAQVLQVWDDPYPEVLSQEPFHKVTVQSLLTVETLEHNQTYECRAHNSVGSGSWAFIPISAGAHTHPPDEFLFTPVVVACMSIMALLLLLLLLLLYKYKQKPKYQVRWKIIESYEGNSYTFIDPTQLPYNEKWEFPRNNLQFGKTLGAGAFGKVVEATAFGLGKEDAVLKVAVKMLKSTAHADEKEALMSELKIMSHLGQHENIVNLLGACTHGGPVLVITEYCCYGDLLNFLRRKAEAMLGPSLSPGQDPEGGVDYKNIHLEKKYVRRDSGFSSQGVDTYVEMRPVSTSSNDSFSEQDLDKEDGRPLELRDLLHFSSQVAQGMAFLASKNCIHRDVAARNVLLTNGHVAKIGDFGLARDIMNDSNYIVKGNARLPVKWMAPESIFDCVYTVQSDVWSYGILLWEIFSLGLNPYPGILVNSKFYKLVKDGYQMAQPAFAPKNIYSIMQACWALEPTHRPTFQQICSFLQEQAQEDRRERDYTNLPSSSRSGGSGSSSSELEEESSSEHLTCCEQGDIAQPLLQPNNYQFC

Homo sapiens [20] = species on record: Homo sapiens; assay: Selectivity index, ratio of IC50 for c-Src (unknown origin) to IC50 for Bcr-Abl (unknown origin)
Homo sapiens [21] = species on record: Homo sapiens; assay: Selectivity index, ratio of IC50 for BRAF (unknown origin) to IC50 for Bcr-Abl (unknown origin)
K562 [22] = assay: Antiproliferative activity against human K562 cells assessed as cell growth inhibition incubated for 72 hrs by MTT assay; format: functional
CCRF-CEM = assay: Antiproliferative activity against human CCRF-CEM cells assessed as cell growth inhibition measured after 48 hrs by SRB assay; format: functional
K562 [23] = assay: Antiproliferative activity against human K562 cells assessed as cell growth inhibition at 10 uM measured after 48 hrs by SRB assay relative to control; format: functional; conditions: read-out: GI
K562 [24] = assay: Antiproliferative activity against human K562 cells assessed as cell growth inhibition measured after 48 hrs by SRB assay; format: functional
HL-60(TB) = assay: Antiproliferative activity against human HL-60(TB) cells assessed as cell growth inhibition measured after 48 hrs by SRB assay; format: functional
MOLT-4 [25] = assay: Antiproliferative activity against human MOLT-4 cells assessed as cell growth inhibition at 10 uM measured after 48 hrs by SRB assay relative to control; format: functional; conditions: read-out: GI
MOLT-4 [26] = assay: Antiproliferative activity against human MOLT-4 cells assessed as cell growth inhibition measured after 48 hrs by SRB assay; format: functional
RPMI-8226 = assay: Antiproliferative activity against human RPMI-8226 cells assessed as cell growth inhibition at 10 uM measured after 48 hrs by SRB assay relative to control; format: functional; conditions: read-out: GI
SR = assay: Antiproliferative activity against human SR cells assessed as cell growth inhibition at 10 uM measured after 48 hrs by SRB assay relative to control; format: functional; conditions: read-out: GI
[27] = Selectivity index, ratio of GI50 for human HL60(TB) cells to GI50 for human K562 cells; format: functional
[28] = biological target: Tyrosine-protein kinase ABL1 (Homo sapiens, UniProt P00519); assay: Inhibition of NanoLuc-fused ABL1 (unknown origin) expressed in human HEK293 cells incubated for 2 to 3 mins by NanoBRET assay; format: cell-based
[29] = biological target: Bcr/Abl fusion protein (Homo sapiens) (UniProt P00519+P11274); assay: Inhibition of Bcr-Abl in human K562 cells assessed as reduction in Bcr-Abl phosphorylation incubated for 1 hr by Western blotting analysis; format: cell-based; conditions: dose 0.003-0.3 µM
[30] = biological target: Voltage-gated inwardly rectifying potassium channel KCNH2 (Homo sapiens, UniProt Q12809); assay: Inhibition of human ERG incubated for 4 hrs by competitive fluorescence tracer binding based assay
Voltage-gated inwardly rectifying potassium channel KCNH2, sequence (Q12809 whole entry): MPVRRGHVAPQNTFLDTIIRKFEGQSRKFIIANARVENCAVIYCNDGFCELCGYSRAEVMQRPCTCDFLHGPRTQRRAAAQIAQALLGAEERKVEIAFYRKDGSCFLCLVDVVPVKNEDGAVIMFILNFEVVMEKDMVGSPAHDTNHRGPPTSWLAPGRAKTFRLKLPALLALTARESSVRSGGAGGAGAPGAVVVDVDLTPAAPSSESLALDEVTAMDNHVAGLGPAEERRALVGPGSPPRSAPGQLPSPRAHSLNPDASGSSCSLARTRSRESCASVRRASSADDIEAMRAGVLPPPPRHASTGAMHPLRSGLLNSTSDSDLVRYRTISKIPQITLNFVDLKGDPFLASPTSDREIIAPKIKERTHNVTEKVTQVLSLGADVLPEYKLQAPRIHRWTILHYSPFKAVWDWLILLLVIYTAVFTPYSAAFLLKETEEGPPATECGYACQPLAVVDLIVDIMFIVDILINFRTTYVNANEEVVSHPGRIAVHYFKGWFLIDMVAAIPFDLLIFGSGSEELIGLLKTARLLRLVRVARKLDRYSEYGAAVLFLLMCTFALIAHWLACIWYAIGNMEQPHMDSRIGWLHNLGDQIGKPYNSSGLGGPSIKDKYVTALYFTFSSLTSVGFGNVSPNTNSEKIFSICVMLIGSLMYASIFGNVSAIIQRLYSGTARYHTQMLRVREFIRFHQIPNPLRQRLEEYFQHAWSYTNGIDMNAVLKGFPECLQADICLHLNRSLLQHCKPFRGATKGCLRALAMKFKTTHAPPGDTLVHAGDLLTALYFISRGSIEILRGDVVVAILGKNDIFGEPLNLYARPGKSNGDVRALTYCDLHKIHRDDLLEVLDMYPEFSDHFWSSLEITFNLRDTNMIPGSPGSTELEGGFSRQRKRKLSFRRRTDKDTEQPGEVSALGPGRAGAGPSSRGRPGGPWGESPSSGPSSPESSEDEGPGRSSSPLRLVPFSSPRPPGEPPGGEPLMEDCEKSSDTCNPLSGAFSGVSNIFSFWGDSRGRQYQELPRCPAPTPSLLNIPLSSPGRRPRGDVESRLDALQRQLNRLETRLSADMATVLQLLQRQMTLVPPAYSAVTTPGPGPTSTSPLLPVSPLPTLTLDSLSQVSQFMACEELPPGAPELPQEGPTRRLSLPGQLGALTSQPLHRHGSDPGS

Homo sapiens [31] = species on record: Homo sapiens; assay: Potency index, ratio of test compound IC50 to E4031 IC50 for human […]
[32] = Tmax in ICR mouse at 10 mg/kg, po measured up to 8 hrs by LC-MS/MS analysis; format: ADME, organism-based; conditions: in vivo
[33] = Cmax in ICR mouse at 10 mg/kg, po measured up to 8 hrs by LC-MS/MS analysis; format: ADME, organism-based; set-up: route oral, dose 10 mg/kg, time <=8; conditions: in vivo
[34] = Half life in ICR mouse at 5 mg/kg, iv measured up to 8 hrs by LC-MS/MS analysis; format: ADME, organism-based; conditions: in vivo
[35] = Half life in ICR mouse at 10 mg/kg, po measured up to 8 hrs by LC-MS/MS analysis; format: ADME, organism-based; conditions: in vivo
[36] = AUClast in ICR mouse at 5 mg/kg, iv measured up to 8 hrs by LC-MS/MS analysis; format: ADME, organism-based; set-up: route intravenous, dose 5 mg/kg, time <=8; conditions: in vivo
[37] = AUClast in ICR mouse at 10 mg/kg, po measured up to 8 hrs by LC-MS/MS analysis; format: ADME, organism-based; set-up: route oral, dose 10 mg/kg, time <=8; conditions: in vivo
[38] = Clearance in ICR mouse at 5 mg/kg, iv measured up to 8 hrs by LC-MS/MS analysis; format: ADME, organism-based; conditions: in vivo
[39] = Mean residence time in ICR mouse at 5 mg/kg, iv measured up to 8 hrs by LC-MS/MS analysis; format: ADME, organism-based; conditions: in vivo

**Q.** Which IC50 (Bcr/Abl fusion protein [1]) does the source give for `Nc1n[nH]c2cccc(C#Cc3cccc(NC(=O)c4ccc(N5CCOCC5)c(C(F)(F)F)c4)c3)c12` here?
**A.** 4.6 nM

**Q.** What about the IC50 (Bcr/Abl fusion protein [2]) of the same compound?
**A.** 227 nM

**Q.** What about the inhibition [3] of the same compound?
**A.** 87.8%

**Q.** What about the inhibition [4] of the same compound?
**A.** 87.8%

**Q.** And the inhibition [5]?
**A.** 87.8%

**Q.** What about the inhibition [6] of the same compound?
**A.** 43.4%

**Q.** What about the inhibition [7] of the same compound?
**A.** 43.4%

**Q.** And the inhibition [8]?
**A.** 43.4%

**Q.** And the inhibition [9]?
**A.** < 30%

**Q.** What about the inhibition [10] of the same compound?
**A.** < 30%

**Q.** What about the inhibition [11] of the same compound?
**A.** < 30%

**Q.** What about the inhibition [12] of the same compound?
**A.** < 30%

**Q.** What about the inhibition [13] of the same compound?
**A.** < 30%

**Q.** And the inhibition [14]?
**A.** < 30%

**Q.** What about the inhibition [15] of the same compound?
**A.** < 30%

**Q.** And the inhibition [16]?
**A.** < 30%

**Q.** And the IC50 [17]?
**A.** 122 nM

**Q.** What about the IC50 [18] of the same compound?
**A.** 66 nM

**Q.** And the IC50 [19]?
**A.** 16.2 nM

**Q.** And the Ratio IC50 (Homo sapiens [20])?
**A.** 14.3

**Q.** What about the Ratio IC50 (Homo sapiens [21]) of the same compound?
**A.** 26.5

**Q.** And the GI50 (K562 [22])?
**A.** 20 nM

**Q.** And the GI50 (CCRF-CEM)?
**A.** 1360 nM

**Q.** What about the inhibition of growth at 10 µM (K562 [23]) of the same compound?
**A.** 99%

**Q.** And the GI50 (K562 [24])?
**A.** < 10 nM

**Q.** What about the GI50 (HL-60(TB)) of the same compound?
**A.** 1400 nM

**Q.** What about the inhibition of growth at 10 µM (MOLT-4 [25]) of the same compound?
**A.** 92.3%

**Q.** And the GI50 (MOLT-4 [26])?
**A.** 1310 nM

**Q.** And the inhibition of growth at 10 µM (RPMI-8226)?
**A.** > 100%

**Q.** What about the inhibition of growth at 10 µM (SR) of the same compound?
**A.** 87.4%

**Q.** And the RatioGI50 [27]?
**A.** 140

**Q.** And the EC50 [28]?
**A.** 14.6 nM

**Q.** What about the Activity [29] of the same compound?
**A.** Dose-dependent effect

**Q.** And the IC50 [30]?
**A.** 3400 nM

**Q.** And the Ratio IC50 (Homo sapiens [31])?
**A.** 310

**Q.** And the Tmax [32]?
**A.** 0.6 h

**Q.** And the Cmax [33]?
**A.** 113 ng/mL

**Q.** And the half-life [34]?
**A.** 3.5 h

**Q.** And the half-life [35]?
**A.** 0.7 h

**Q.** And the AUC(0-t) at 8 h [36]?
**A.** 14000 ng·h/mL

**Q.** What about the AUC(0-t) at 8 h [37] of the same compound?
**A.** 175 ng·h/mL

**Q.** What about the clearance [38] of the same compound?
**A.** 5 mL/min/kg

**Q.** What about the MRT [39] of the same compound?
**A.** 4.7 h
